Series [1] in a line: 28-day toxicokinetic (TK) study in rats. Format: in vivo, rat. Particulars: for AUC: rat, in vivo, read-out: AUC (area under the curve).
The nature of series [2]: 28-day toxicokinetic (TK) study in dogs. Format: in vivo, dog. Particulars: for AUC: dog, in vivo, 15 mg/kg.
Series [3] is described as follows: Toxicity and TK studies, 28-day rat and dog. As to conditions: 28-day rat and dog studies. The text has this:
Toxicity and toxicokinetic (TK) studies of the compounds can be performed by well known methods.

Where [4] appears, read: 100 mg/kg, Study Day 28, Female.
[5] abbreviates: 45 mg/kg/day, Study Day 1, Female.

Results on one compound are retold here after US10300066B2, “Polyfluorinated compounds acting as bruton tyrosine kinase inhibitors” (ZHEJIANG DTRM BIOPHARMA CO. LTD., priority 2014, dated 2019).

The structures appear in SMILES notation.

In general, Cmax refers to the maximum level reached in the sampled fluid or tissue. A word on the AUC: it is concentration integrated over time. For `C=CC(=O)N1CC[C@@H](n2nc(-c3ccc(Oc4c(F)c(F)cc(F)c4F)cc3F)c3c(N)ncnc32)C1` [Compound 45, 1-((R)-3-(4-amino-3-(2-fluoro-4-(2,3,5,6-tetrafluorophenoxy)phenyl)-1H-pyrazolo[3,4-d]pyrimidin-1-yl)pyrrolidin-1-yl)prop-2-en-1-one], the “AUC compared to ibrutinib” value in series [1] and in series [2] was “significantly higher” in each case. Moreover, the Cmax in series [1] (40 mg/kg, Study Day 1, Female) is listed as 2660 ng/mL; in series [1] (40 mg/kg, Study Day 28, Male) it was 2090 ng/mL; in series [1] (setting [4]), 3830 ng/mL; in series [1] (200 mg/kg, Study Day 28, Male) it was 4540 ng/mL; in series [2] (setting [5]), 1220 ± 431 ng/mL; in series [2] (150 mg/kg/day, Study Day 1, Male) it was 2460 ± 858 ng/mL. Moreover, the AUC0-24 h was found to be 29600 ng·h/mL in series [1] (setting [4]); 30300 ng·h/mL in series [1] (100 mg/kg, Study Day 28, Male); 6220 ± 3000 ng·h/mL in series [2] (setting [5]). For the same compound, the AUC worked out at 17300 ng·h/mL in series [1] (40 mg/kg, female); 13700 ng·h/mL in series [1] (40 mg/kg, male); 2930 ng·h/mL in series [2] (female); 3550 ng·h/mL in series [2] (male). Further, the “Bioavailability compared to ibrutinib” value in series [3] is “superior bioavailability”. For the same compound, the “Drug exposure, Day 1 versus Day 28” value in series [3] is “no significant difference”. In addition, the “Drug exposure, male versus female” value in series [3] is recorded as “no significant difference”. Also, in series [3], the “Pharmacokinetics compared to ibrutinib” value is listed as “excellent pharmacokinetics”. For the same compound, the “Toxicity compared to ibrutinib” value in series [3] was “low toxicity”.
